The results in this text go back to ChEMBL document CHEMBL4396965.

In general, CC50 refers to the concentration giving 50% cytotoxicity.

What all share (type): cell-based
Data set [1] concerns Vero. Description: Cytotoxicity against African green monkey Vero cells. The following applies: chlorocebus sabaeus.
The test system of data set [2] is PBMC. In words: (§1) Cytotoxicity against human PBMC cells. The following applies: pbmc.
The test system of data set [3] is Huh-7. Description: Cytotoxicity against human HuH7 cells.
In data set [4] the test system is A549. In words: Cytotoxicity against human A549 cells.
Data set [5] relates to CCRF-CEM. In words: Cytotoxicity against human CEM cells.
A short description of data set [6]: as §1. Conditions: PBMC cells.

SMILES strings stand for the structures. A value given as a limit tells only on which side of the number the result lay.

On to `Cn1cnc2nc(-c3c[nH]c4ncc(F)cc34)nc(N[C@H]3C4C=CC(CC4)[C@@H]3C(=O)O)c21` (some centres not stated), for which the CC50 in data set [1], in data set [2], in data set [3], in data set [4] and in data set [5] was greater than 100 µM each time.
As for `O=C(O)[C@H]1C2C=CC(CC2)[C@@H]1Nc1nc(-c2c[nH]c3ncc(F)cc23)ncc1F` (some centres not stated), the results for the CC50 in data set [1], in data set [6] and in data set [5] were greater than 100 µM, greater than 100 µM and 91.1 µM, respectively.
For `O=C(O)[C@H]1C2C=CC(CC2)[C@@H]1Nc1cc2nncn2c(-c2c[nH]c3ncc(F)cc23)n1` (some centres not stated), the CC50 in data set [1] was greater than 100 µM; in data set [2], greater than 100 µM; in data set [3], 71 µM; in data set [4], 51.9 µM; in data set [5], 30.8 µM.
As for `O=C(O)[C@H]1C2C=CC(CC2)[C@@H]1Nc1nc(-c2c[nH]c3ncc(F)cc23)nc2ccsc12` (some centres not stated), the CC50 is 74.9 µM in data set [1]; 64.6 µM in data set [2]; 68.7 µM in data set [3]; 14.7 µM in data set [4]; 31.6 µM in data set [5].
Take `Cc1csc2c(N[C@H]3C4C=CC(CC4)[C@@H]3C(=O)O)nc(-c3c[nH]c4ncc(F)cc34)nc12` (some centres not stated): the cytotoxic concentration (CC50) in data set [1], in data set [2], in data set [3], in data set [4] and in data set [5] was greater than 100 µM in each case.
Turning to `O=C(O)[C@H]1C2C=CC(CC2)[C@@H]1Nc1nc2cnc(-c3c[nH]c4ncc(F)cc34)nc2s1` (some centres not stated), the CC50 in data set [1] was found to be 86.1 µM; in data set [2], 84.8 µM; in data set [3], 70.2 µM; in data set [4], 31.3 µM; in data set [5], 17.3 µM.
`O=C(O)[C@H]1C2CCC(CC2)[C@@H]1Nc1nc(-c2c[nH]c3ncc(F)cc23)ncc1F` [PIMODIVIR]: the CC50 is greater than 100 µM in data set [1]; greater than 100 µM in data set [2]; 95.8 µM in data set [3]; 20 µM in data set [4]; 48.9 µM in data set [5].
Regarding `O=C(O)[C@H]1C2C=CC(CC2)[C@@H]1Nc1nc(-c2c[nH]c3ncc(F)cc23)nc2sccc12` (some centres not stated), the CC50 in data set [1] came out at 65.9 µM; in data set [2] it was 9.3 µM; in data set [3], 24 µM; in data set [4], 14.5 µM; in data set [5], 4.2 µM.
For `O=C(O)[C@H]1C2C=CC(CC2)[C@@H]1Nc1nc(-c2n[nH]c3ncc(F)cc23)ncc1F` (some centres not stated), in that order: greater than 100 µM, greater than 100 µM, 83 µM, 30.6 µM and 48.9 µM.
For `Cc1cc2nc(-c3c[nH]c4ncc(F)cc34)nc(N[C@H]3C4C=CC(CC4)[C@@H]3C(=O)O)c2s1` (some centres not stated), in that order: 90.3 µM, 78.4 µM, 31.2 µM, 41.7 µM and 12.9 µM.
Regarding `O=C(O)C12CC3CC(CC(Nc4nc(-c5c[nH]c6ncc(F)cc56)ncc4F)(C3)C1)C2`, the CC50 in data set [1] was 30.3 µM; in data set [2], 23.1 µM; in data set [3], 14.3 µM; in data set [4], 16.2 µM; in data set [5], 10.1 µM.
Turning to `Cn1cnc2c(N[C@H]3C4C=CC(CC4)[C@@H]3C(=O)O)nc(-c3c[nH]c4ncc(F)cc34)nc21` (some centres not stated), the CC50 in data set [1] was greater than 100 µM; in data set [2], greater than 100 µM; in data set [3], greater than 100 µM; in data set [4], no less than 100 µM; in data set [5], 29.1 µM.
For `O=C(O)[C@H]1C2C=CC(CC2)[C@@H]1Nc1nc(-c2n[nH]c3ncc(F)cc23)nc2ccsc12` (some centres not stated), the CC50 is 52.5 µM in data set [1]; greater than 100 µM in data set [2]; 70.7 µM in data set [3]; 32.5 µM in data set [4]; 67 µM in data set [5].
For `O=C(O)[C@H]1C2C=CC(CC2)[C@@H]1Nc1nc(-c2n[nH]c3ncc(F)cc23)nc2sccc12` (some centres not stated), in that order: greater than 100 µM, greater than 100 µM, 62.7 µM, greater than 100 µM and 13.7 µM.
For `O=C(O)[C@H]1C2C=CC(CC2)[C@@H]1c1nnc2c(F)cnc(-c3c[nH]c4ncc(F)cc34)n12` (some centres not stated), in that order: no less than 100 µM, no less than 100 µM, no less than 100 µM, 65.4 µM and 41.7 µM.
Consider `O=C(O)[C@H]1C2C=CC(C2)[C@@H]1Nc1nc(-c2c[nH]c3ncc(F)cc23)ncc1F` (some centres not stated), for which the CC50 in data set [1], in data set [2], in data set [3], in data set [4] and in data set [5] was greater than 100 µM in each case.
Regarding `O=C(O)[C@H]1C2CCC(C3CC32)[C@@H]1Nc1nc(-c2c[nH]c3ncc(F)cc23)ncc1F` (some centres not stated), the CC50 is greater than 100 µM in data set [1], greater than 100 µM in data set [2], 94.6 µM in data set [4] and 62.9 µM in data set [5].
